What was measured:
[1] = molecular target: Casein kinase II (Homo sapiens) (UniProt P67870+P68400+P19784); experiment: Inhibition of CK2 (unknown origin) assessed as residual enzyme activity at 10 uM using RRRDDDSDDD substrate peptide; assay type: protein-complex assay
[2] = molecular target: Mitogen-activated protein kinase 10 (Homo sapiens) (UniProt P53779); experiment: Inhibition of JNK3 (unknown origin) assessed as residual enzyme activity at 10 uM using JNK3tide substrate
[3] = molecular target: Fibroblast growth factor receptor 1 (Homo sapiens) (UniProt P11362); experiment: Inhibition of FGFR1 (unknown origin) assessed as residual enzyme activity at 10 uM using IGF-IRtide (12 to 527) substrate
[4] = molecular target: T1, Aurora kinase A (Homo sapiens) (UniProt O14965); experiment: Inhibition of Aurora A (unknown origin) assessed as residual enzyme activity at 10 uM using kemptide substrate
T1 sequence (whole entry): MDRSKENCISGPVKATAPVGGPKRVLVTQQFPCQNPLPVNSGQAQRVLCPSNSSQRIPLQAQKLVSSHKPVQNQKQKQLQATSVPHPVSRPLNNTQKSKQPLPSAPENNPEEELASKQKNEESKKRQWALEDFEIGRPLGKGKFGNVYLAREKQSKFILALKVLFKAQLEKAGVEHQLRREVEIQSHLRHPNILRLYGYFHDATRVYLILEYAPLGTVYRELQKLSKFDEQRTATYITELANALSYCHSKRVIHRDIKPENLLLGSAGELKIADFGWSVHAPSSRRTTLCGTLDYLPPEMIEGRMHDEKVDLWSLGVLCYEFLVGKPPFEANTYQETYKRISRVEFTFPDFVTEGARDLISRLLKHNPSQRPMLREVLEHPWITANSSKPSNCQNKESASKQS

[5] = molecular target: Angiopoietin-1 receptor (Homo sapiens) (UniProt Q02763); experiment: Inhibition of Tie2 (unknown origin) assessed as residual enzyme activity at 10 uM using TK Substrate 2 (poly Glu-Tyr) substrate
[6] = molecular target: T2, Mitogen-activated protein kinase kinase kinase 5 (Homo sapiens) (UniProt Q99683); experiment: Inhibition of recombinant ASK1 catalytic subunit (unknown origin) assessed as residual enzyme activity at 10 uM using MBP substrate and gamma-labeled 32P ATP incubated for 20 mins by liquid scintillation counting method
T2 sequence (whole entry): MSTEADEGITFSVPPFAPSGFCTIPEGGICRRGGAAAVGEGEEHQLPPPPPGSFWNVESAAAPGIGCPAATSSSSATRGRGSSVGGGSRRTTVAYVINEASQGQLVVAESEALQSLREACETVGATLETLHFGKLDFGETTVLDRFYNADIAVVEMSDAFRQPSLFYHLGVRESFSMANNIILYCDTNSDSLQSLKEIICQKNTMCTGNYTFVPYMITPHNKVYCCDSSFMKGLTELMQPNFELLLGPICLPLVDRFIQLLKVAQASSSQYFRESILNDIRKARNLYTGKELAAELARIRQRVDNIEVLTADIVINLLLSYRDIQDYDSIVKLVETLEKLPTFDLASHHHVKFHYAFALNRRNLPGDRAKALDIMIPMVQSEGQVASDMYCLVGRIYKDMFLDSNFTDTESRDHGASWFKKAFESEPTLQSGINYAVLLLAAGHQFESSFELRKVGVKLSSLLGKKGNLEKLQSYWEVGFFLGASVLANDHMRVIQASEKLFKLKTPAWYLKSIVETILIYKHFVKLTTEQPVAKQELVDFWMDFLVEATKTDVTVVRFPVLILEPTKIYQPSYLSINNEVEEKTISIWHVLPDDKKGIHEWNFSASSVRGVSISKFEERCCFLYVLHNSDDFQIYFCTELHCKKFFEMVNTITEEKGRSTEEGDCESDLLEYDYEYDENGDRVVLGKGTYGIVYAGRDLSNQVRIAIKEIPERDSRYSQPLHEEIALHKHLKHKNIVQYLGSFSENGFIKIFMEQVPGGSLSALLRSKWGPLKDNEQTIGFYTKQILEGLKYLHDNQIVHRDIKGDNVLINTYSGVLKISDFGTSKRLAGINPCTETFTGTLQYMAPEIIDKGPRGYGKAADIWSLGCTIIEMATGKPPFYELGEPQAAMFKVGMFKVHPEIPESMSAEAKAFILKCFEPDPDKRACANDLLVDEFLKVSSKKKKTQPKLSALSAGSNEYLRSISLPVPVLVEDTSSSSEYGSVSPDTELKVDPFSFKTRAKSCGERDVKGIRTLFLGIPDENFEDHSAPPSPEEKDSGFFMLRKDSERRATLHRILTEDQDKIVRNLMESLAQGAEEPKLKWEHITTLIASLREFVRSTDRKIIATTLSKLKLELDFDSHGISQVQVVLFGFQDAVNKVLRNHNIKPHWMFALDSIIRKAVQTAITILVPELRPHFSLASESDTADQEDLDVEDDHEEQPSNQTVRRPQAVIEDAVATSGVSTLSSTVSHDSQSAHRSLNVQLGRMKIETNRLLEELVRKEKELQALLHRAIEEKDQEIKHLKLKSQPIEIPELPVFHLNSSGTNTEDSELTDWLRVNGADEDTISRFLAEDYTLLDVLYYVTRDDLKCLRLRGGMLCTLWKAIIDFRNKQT

[7] = molecular target: T3, Mitogen-activated protein kinase kinase kinase 5 (Homo sapiens, UniProt Q99683); experiment: Inhibition of recombinant ASK1 catalytic subunit (unknown origin) using MBP substrate and gamma-labeled 32P ATP incubated for 20 mins by liquid scintillation counting method
T3 sequence (Q99683 whole entry): T2 sequence (whole entry)

Angiopoietin-1 receptor (Homo sapiens), sequence (Q02763 whole entry): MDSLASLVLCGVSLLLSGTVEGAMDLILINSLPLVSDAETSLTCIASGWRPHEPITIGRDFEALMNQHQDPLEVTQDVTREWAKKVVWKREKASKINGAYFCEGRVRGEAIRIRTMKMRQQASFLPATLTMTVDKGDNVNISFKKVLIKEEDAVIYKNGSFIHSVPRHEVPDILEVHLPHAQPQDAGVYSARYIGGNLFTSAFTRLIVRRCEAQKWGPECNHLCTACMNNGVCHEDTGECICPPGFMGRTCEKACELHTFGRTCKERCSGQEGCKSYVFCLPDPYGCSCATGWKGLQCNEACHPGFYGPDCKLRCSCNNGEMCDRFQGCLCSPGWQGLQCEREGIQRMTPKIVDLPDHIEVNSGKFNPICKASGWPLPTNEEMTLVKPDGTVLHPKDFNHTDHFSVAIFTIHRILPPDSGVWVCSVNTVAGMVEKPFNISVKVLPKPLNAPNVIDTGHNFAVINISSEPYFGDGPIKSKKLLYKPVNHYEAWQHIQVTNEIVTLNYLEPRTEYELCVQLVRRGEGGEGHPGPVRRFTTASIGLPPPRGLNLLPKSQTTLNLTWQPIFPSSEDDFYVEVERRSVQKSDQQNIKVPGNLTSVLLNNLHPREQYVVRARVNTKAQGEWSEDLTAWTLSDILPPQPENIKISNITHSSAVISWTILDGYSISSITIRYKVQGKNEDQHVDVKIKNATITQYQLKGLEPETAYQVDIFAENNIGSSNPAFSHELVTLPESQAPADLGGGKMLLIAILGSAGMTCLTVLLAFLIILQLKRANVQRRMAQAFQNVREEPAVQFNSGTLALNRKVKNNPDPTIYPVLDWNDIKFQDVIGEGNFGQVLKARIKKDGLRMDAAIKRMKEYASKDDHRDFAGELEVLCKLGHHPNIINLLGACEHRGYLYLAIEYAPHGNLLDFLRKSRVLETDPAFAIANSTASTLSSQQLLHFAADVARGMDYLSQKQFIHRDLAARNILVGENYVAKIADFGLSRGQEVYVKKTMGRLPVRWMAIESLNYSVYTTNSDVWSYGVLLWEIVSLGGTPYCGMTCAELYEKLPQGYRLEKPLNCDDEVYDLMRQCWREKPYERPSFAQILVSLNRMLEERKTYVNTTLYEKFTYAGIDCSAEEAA
Mitogen-activated protein kinase 10 (Homo sapiens), sequence (P53779 whole entry): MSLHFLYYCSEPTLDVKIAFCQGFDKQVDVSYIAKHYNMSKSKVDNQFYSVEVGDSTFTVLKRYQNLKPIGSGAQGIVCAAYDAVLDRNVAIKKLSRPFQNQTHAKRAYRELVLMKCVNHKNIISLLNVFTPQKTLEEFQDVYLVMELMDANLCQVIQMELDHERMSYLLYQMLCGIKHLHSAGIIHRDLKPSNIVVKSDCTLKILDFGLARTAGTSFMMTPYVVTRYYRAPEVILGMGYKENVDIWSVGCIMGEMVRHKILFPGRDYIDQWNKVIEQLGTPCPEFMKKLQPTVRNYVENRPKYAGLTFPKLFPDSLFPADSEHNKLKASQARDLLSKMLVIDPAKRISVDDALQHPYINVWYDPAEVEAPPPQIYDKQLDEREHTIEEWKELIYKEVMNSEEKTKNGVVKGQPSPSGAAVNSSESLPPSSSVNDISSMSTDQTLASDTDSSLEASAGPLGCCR
Fibroblast growth factor receptor 1 (Homo sapiens), sequence (P11362 22-822 limits assumed): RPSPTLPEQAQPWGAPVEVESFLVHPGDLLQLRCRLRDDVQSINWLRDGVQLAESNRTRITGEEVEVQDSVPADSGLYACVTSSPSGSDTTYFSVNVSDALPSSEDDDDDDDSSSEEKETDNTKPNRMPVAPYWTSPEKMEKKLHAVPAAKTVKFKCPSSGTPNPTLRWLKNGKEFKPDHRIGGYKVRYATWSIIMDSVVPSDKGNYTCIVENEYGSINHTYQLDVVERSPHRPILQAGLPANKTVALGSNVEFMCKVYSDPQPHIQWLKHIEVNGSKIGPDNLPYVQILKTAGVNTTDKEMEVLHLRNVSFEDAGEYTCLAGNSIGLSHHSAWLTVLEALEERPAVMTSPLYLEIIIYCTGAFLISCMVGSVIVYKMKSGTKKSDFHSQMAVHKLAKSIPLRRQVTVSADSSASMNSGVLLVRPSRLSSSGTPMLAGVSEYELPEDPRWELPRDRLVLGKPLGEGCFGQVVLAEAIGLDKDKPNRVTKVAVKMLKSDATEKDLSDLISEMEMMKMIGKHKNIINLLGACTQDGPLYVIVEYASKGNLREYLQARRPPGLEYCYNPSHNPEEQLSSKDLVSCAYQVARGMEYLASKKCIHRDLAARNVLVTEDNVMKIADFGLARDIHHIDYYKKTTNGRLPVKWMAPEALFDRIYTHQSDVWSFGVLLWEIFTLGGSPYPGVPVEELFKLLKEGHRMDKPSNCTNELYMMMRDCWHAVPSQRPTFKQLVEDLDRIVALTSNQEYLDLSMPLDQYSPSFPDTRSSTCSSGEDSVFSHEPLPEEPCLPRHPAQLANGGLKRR

Row | Compound | Activity [1] | Activity [2] | Activity [3] | Activity [4] | Activity [5] | Activity [6] | IC50 [7]
1 | CCCOc1ccc(C2C(C(=O)c3ccc4c(c3)OCCO4)=C(O)C(=O)N2c2nc3ccc(C)cc3s2)cc1 (stereo not given) | 81.8% | 80% | 22.6% | 49.5% | 99.2% | 43% | 2 µM
2 | COc1ccccc1C1C(C(=O)c2ccc(C)o2)=C(O)C(=O)N1c1nc2c(C)cc(C)cc2s1 (stereo not given) |  |  |  |  |  |  | 35.5 µM
3 | COc1ccc(C(=O)C2=C(O)C(=O)N(c3nc4ccc(F)cc4s3)C2c2cccc(F)c2)cc1 (stereo not given) |  |  |  |  |  |  | 17 µM
4 | Cc1cc(C)c2nc(N3C(=O)C(O)=C(C(=O)c4ccc(C)o4)C3c3ccc(C(C)C)cc3)sc2c1 (stereo not given) |  |  |  |  |  |  | 2 µM
5 | Cc1ccc(C(=O)C2=C(O)C(=O)N(c3nc4ccc(C)cc4s3)C2c2ccc(C(C)(C)C)cc2)cc1 (stereo not given) |  |  |  |  |  |  | 4.4 µM
6 | COc1ccc2nc(N3C(=O)C(O)=C(C(=O)c4ccco4)C3c3ccc(Cl)cc3)sc2c1 (stereo not given) | 73.9% | 96.8% | 46.4% | 48.1% | 66.4% | 39.1% | 4.2 µM
7 | O=C(C1=C(O)C(=O)N(c2nc3ccc(F)cc3s2)C1c1cccc(Cl)c1)c1ccco1 (stereo not given) |  |  |  |  |  |  | 28.2 µM
8 | CCOc1ccc2nc(N3C(=O)C(O)=C(C(=O)c4ccccc4)C3c3ccc(Cl)cc3)sc2c1 (stereo not given) | 79.3% | 100% | 65.7% | 36.5% | 62.8% | 16.2% | 4.2 µM
9 | CC(C)CCOc1cccc(C2C(C(=O)c3ccc4c(c3)CC(C)O4)=C(O)C(=O)N2c2nc3ccc(F)cc3s2)c1 (stereo not given) | 83.4% | 100% | 100% | 44.7% | 100% | 14% | 0.52 µM
10 | Cc1ccc(C(=O)C2=C(O)C(=O)N(c3nc4ccc(F)cc4s3)C2c2ccc(C(C)(C)C)cc2)o1 (stereo not given) | 68.3% | 100% | 92.7% | 100% | 100% | 32.6% | 1.55 µM
11 | CCOc1ccc(C2C(C(=O)c3cccs3)=C(O)C(=O)N2c2nc3ccc(C)cc3s2)cc1 (stereo not given) |  |  |  |  |  |  | 9.1 µM
12 | CCCCCOc1ccc(C2C(C(=O)c3ccc4c(c3)CC(C)O4)=C(O)C(=O)N2c2nc3ccc(F)cc3s2)cc1 (stereo not given) | 92.6% | 100% | 26.9% | 28.4% | 68.4% | 18.1% | 0.75 µM
13 | O=C(C1=C(O)C(=O)N(c2nc3ccc(F)cc3s2)C1c1cccc(Br)c1)c1ccco1 (stereo not given) |  |  |  |  |  |  | 29.5 µM
14 | O=C(C1=C(O)C(=O)N(c2nc3ccc(F)cc3s2)C1c1cccc(F)c1)c1ccco1 (stereo not given) |  |  |  |  |  |  | 42.6 µM
15 | Cc1ccc2nc(N3C(=O)C(O)=C(C(=O)c4ccco4)C3c3ccc(Br)cc3)sc2c1 (stereo not given) |  |  |  |  |  |  | 28.2 µM
16 | O=C(C1=C(O)C(=O)N(c2nc3ccc(F)cc3s2)C1c1cccc(Cl)c1)c1cccs1 (stereo not given) | 71.5% | 89.9% | 74.4% | 28.1% | 63.5% | 27.6% | 4.5 µM
17 | CC(C)(C)c1ccc(C2C(C(=O)c3ccc4c(c3)OCCO4)=C(O)C(=O)N2c2nc3ccc(Cl)cc3s2)cc1 (stereo not given) | 83.6% | 100% | 46.8% | 52.9% | 92.5% | 12.3% | 2.5 µM
